These are literature values, as cited in the PKSmart pharmacokinetics tables (Seal et al. 2025).

As a reminder, the Vd is the apparent volume that relates the amount in the body to the concentration in plasma or blood. By clearance is commonly meant a measure of how efficiently the substance is removed, as volume per time. For orientation: fraction unbound means the share of the substance not bound to proteins or other matrix. In general, half-life refers to the time needed for the level to fall by half in the phase considered.

Data set [1] can be described thus: not given per row; by the article one of three: Lombardo et al. 2013, J Clin Pharmacol 53:178, doi 10.1177/0091270012440282; 'New Drugs at FDA', novel drug approvals for 2021 and 2022 (the article's reference 43); Yap, Li, Chen 2006, J Mol Graph Model 24:383, doi 10.1016. The following applies: human; for Vd / clearance / half-life: in vivo; for fraction unbound: plasma.

Data set [2] in a line: Lombardo et al. 2013, J Clin Pharmacol 53:178, doi 10.1177/0091270012440282. Conditions: for Vd / clearance: in vivo, iv; for fraction unbound: plasma.

With `CON=C(C(=O)NC1C(=O)N2C(C(=O)O)=C(CSc3nc(=O)c(=O)[nH]n3C)CS[C@H]12)c1csc(N)n1` (stereo not given in full), the Vd in data set [1] was 0.09 L/kg; in data set [2] (dog), 0.25 L/kg; in data set [2] (monkey) it was 0.11 L/kg; in data set [2] (rat), 1 L/kg. For the same compound, the clearance in data set [1] is 0.245 mL/min/kg; in data set [2] (dog) it was 3.95 mL/min/kg; in data set [2] (monkey) it was 0.19 mL/min/kg; in data set [2] (rat) it was 20 mL/min/kg. Also, the fraction unbound in data set [2] (dog) is 0.717; in data set [2] (monkey), 0.0487; in data set [2] (rat), 0.071.
On to `C[C@@H](O[C@H]1OCCN(Cc2nc(=O)[nH][nH]2)[C@H]1c1ccc(F)cc1)c1cc(C(F)(F)F)cc(C(F)(F)F)c1`, for which the Vd in data set [1] is 0.94 L/kg; in data set [2] (dog), 1 L/kg; in data set [2] (rat), 3.2 L/kg. Besides, the fraction unbound in data set [2] (dog) is 0.0009; in data set [2] (rat) it was 0.002.
With `O=C1C=CC=CC1=C1NC(=C2C=CC=CC2=O)N(c2ccc(C(=O)O)cc2)N1`, in data set [1], the Vd was 0.2 L/kg and the clearance was 0.84 mL/min/kg. Also, in data set [2] (rat), the Vd is 0.46 L/kg and the clearance is 6.2 mL/min/kg.
As to `O=c1ncnc2[nH][nH]cc1-2`, the Vd in data set [1] was 0.58 L/kg; in data set [2] (dog), 0.16 L/kg.
As for `O=C(O)C1=C(C[n+]2ccc(CCS(=O)(=O)[O-])cc2)CS[C@@H]2C(NC(=O)C(NC(=O)c3nc[nH]c3C(=O)O)c3ccccc3)C(=O)N12` (stereo not given in full), in data set [1], the Vd was 0.21 L/kg and the clearance is 1.7 mL/min/kg. Moreover, in data set [2] (dog), the Vd is 0.2 L/kg, the clearance was 0.6 mL/min/kg and the fraction unbound was 0.07. For the same compound, in data set [2] (monkey), the Vd is 0.3 L/kg and the clearance is 3 mL/min/kg.
On to `NNc1nncc2ccccc12`, for which, in data set [1], the Vd is 1.5 L/kg and the clearance is 70.5 mL/min/kg. The fraction unbound in data set [2] (dog) is 0.29. Besides, in data set [2] (rat), the Vd is 2.76 L/kg and the clearance was 139 mL/min/kg.
`CCCn1c(=O)[nH]c(=O)c2[nH]cnc21`: in data set [1], the clearance is 4.16 mL/min/kg. Moreover, in data set [2] (dog), the Vd was 0.64 L/kg, the clearance is 2.4 mL/min/kg and the fraction unbound is 0.61. Further, in data set [2] (rat), the Vd is 0.27 L/kg, the clearance was 12 mL/min/kg and the fraction unbound was 0.19.
For `CC(C)(C)S(=O)(=O)CC(Cc1ccccc1)C(=O)NC(Cc1cnc[nH]1)C(=O)N[C@@H](CC1CCCCC1)[C@@H](O)[C@@H](O)C1CC1` (stereo not given in full), the volume of distribution (Vd) in data set [1] was 0.77 L/kg; in data set [2] (dog), 1.52 L/kg; in data set [2] (monkey) it was 1.7 L/kg; in data set [2] (rat) it was 4.4 L/kg. Moreover, the clearance was 11.6 mL/min/kg in data set [1], 24.7 mL/min/kg in data set [2] (dog), 20 mL/min/kg in data set [2] (monkey) and 119 mL/min/kg in data set [2] (rat). The fraction unbound in data set [2] (dog) is 0.0802; in data set [2] (monkey), 0.167; in data set [2] (rat), 0.053.
For `C/N=C1/CN(O)C(c2ccccc2)=c2cc(Cl)ccc2=N1`, the Vd in data set [1] was 0.25 L/kg. Also, in data set [2] (rat), the Vd was 1.3 L/kg, the clearance is 7.8 mL/min/kg and the fraction unbound is 0.15.
For `[H]/N=C(/N=C(N)N)N(C)C`, in data set [1], the Vd is 0.64 L/kg and the clearance is 7.4 mL/min/kg. In data set [2] (rat), the Vd is 0.54 L/kg and the clearance is 16.8 mL/min/kg.
As to `CNC(C)C1CCC(N)C(OC2C(N)CC(N)C(OC3OCC(C)(O)C(NC)C3O)C2O)O1` (stereo not given), the clearance in data set [1] is 1 mL/min/kg; in data set [2] (dog), 2.1 mL/min/kg; in data set [2] (rat), 7.8 mL/min/kg. Besides, the Vd in data set [2] (dog) and in data set [2] (rat) was 0.33 L/kg each time.
As for `[2H]C([2H])([2H])C([2H])([2H])C(C)n1ncn(-c2ccc(N3CCN(c4ccc(OC[C@H]5CO[C@](Cn6cncn6)(c6ccc(Cl)cc6Cl)O5)cc4)CC3)cc2)c1=O` (stereo not given in full), in data set [1], the Vd was 7.4 L/kg and the clearance was 5.1 mL/min/kg. For the same compound, in data set [2] (rat), the Vd is 5.07 L/kg, the clearance was 9.16 mL/min/kg and the fraction unbound was 0.9.
On to `CCN1CCC[C@@H]1CNC(=O)c1cc(S(=O)(=O)CC)ccc1OC`, for which the clearance in data set [1] is 5.71 mL/min/kg.
As to `CN[C@H]1CCc2[nH]c3ccc(C(N)=O)cc3c2C1`, the clearance in data set [1] was 3.09 mL/min/kg.
As to `CC(C)NC[C@@H](O)c1ccc(NS(C)(=O)=O)cc1`, the clearance in data set [1] was 2.14 mL/min/kg.
For `CC(=O)O[C@H](CC(=O)[O-])C[N+](C)(C)C`, in data set [1], the clearance is 1.45 mL/min/kg.
Take `CON=C(C(=O)NC1C(=O)N2C(C(=O)[O-])=C(C[N+]34CCC(C(N)=O)(CC3)CC4)CS[C@H]12)c1nsc(N)n1` (stereo not given in full): the clearance in data set [1] is 2.15 mL/min/kg.
Regarding `COCCOCC(CC1(C(=O)NC2CCC(C(=O)O)CC2)CCCC1)C(=O)O` (stereo not given), in data set [1], the Vd was 0.25 L/kg and the clearance was 2.3 mL/min/kg. In addition, the clearance in data set [2] (dog) is 5.8 mL/min/kg. In data set [2] (rat), the clearance was 15 mL/min/kg and the fraction unbound is 0.23.
Turning to `CCN1CC(C(=O)O)C(=O)c2ccc(-c3ccncc3)cc21` (stereo not given), the clearance in data set [1] is 2 mL/min/kg.
For the compound `CNS(=O)(=O)CCC1CCC2[N]CC(C3CCN(C)CC3)C2C1` (stereo not given), the clearance in data set [1] was 6.35 mL/min/kg.
Regarding `C=C[C@H](N)CCC(=O)O`, the clearance in data set [1] was 0.74 mL/min/kg.
Turning to `CC(=O)OCC1=C(C(=O)O)N2C(=O)C(NC(=O)Cc3cccs3)[C@@H]2SC1` (stereo not given in full), the clearance in data set [1] was 6.7 mL/min/kg.
`C[C@@H]1COc2c(N3CCN(C)CC3)c(F)cc3c(=O)c(C(=O)O)cn1c23`: the clearance in data set [1] is 2.58 mL/min/kg.
As to `CO[C@]1(NC(=O)Cc2cccs2)C(=O)N2C(C(=O)O)=C(COC(N)=O)CS[C@@H]21`, the clearance in data set [1] was 2.89 mL/min/kg.
Take `COc1ccc2c(c1)N[C@@H]([S@@+](O)Cc1ncc(C)c(OC)c1C)N2`: the clearance in data set [1] is 3.81 mL/min/kg.
With `CCCCCCCN(CC)CCC[C@@H](O)c1ccc(NS(C)(=O)=O)cc1`, the clearance in data set [1] was 29 mL/min/kg.
Consider `COc1ccnc(C[S@@+](O)c2nc3cc(OC(F)F)ccc3[n-]2)c1OC`, for which, in data set [1], the clearance is 2.57 mL/min/kg.
`CON=C(C(=O)NC1C(=O)N2C(C(=O)[O-])=C(Cn3cc[n+]4ncccc34)CS[C@H]12)c1nsc(N)n1` (stereo not given in full): the Vd is 0.24 L/kg in data set [1], 0.2 L/kg in data set [2] (dog), 0.2 L/kg in data set [2] (monkey) and 0.2 L/kg in data set [2] (rat). In addition, the clearance was 2.1 mL/min/kg in data set [1], 3 mL/min/kg in data set [2] (dog), 1.9 mL/min/kg in data set [2] (monkey) and 9.4 mL/min/kg in data set [2] (rat). Further, the fraction unbound in data set [2] (dog) was 0.9; in data set [2] (monkey) it was 0.9; in data set [2] (rat), 0.93.
As to `CN1CCC[C@@H](n2nc(Cc3ccc(Cl)cc3)c3ccccc3c2=O)CC1`, the clearance in data set [1] was 8.33 mL/min/kg.
In the case of `CC(C)(ON=C(C(=O)CC1C(=O)N2C(C(=O)O)=C(C[n+]3ccccc3)CS[C@H]12)c1csc(N)n1)C(=O)[O-]` (stereo not given in full), the clearance in data set [1] was 1.88 mL/min/kg.
Consider `O=C(O)C1/C(=C\CO)O[C@H]2CC(=O)N12` (stereo not given in full), for which the clearance in data set [1] is 3.6 mL/min/kg.
With `COc1ccc2c3c1OC1C(=O)CC[C@@H]4[C@H](C2)N(C)CC[C@@]314` (stereo not given in full), the clearance in data set [1] is 8.82 mL/min/kg.
Turning to `COc1ccccc1Oc1c(NS(=O)(=O)c2ccc(C(C)C)cn2)nc(-c2ccnc(-c3nn[nH]n3)c2)nc1OCCO`, the values for the clearance in data set [1], in data set [2] (monkey) and in data set [2] (rat) were 9.05 mL/min/kg, 15.6 mL/min/kg and 4.3 mL/min/kg, respectively. Moreover, the values for the Vd in data set [2] (monkey) and in data set [2] (rat) were 0.21 L/kg and 0.27 L/kg, respectively.
Consider `CCOCn1c(Cc2ccccc2)c(C(C)C)c(=O)[nH]c1=O`, for which the clearance in data set [1] was 28.6 mL/min/kg.
As to `C[C@@](Cc1ccc(O)c(O)c1)(NN)C(=O)O`, the clearance in data set [1] is 18 mL/min/kg.
As to `O=c1[nH]c(=O)n([C@@H]2CCCO2)cc1F`, in data set [1], the clearance was 0.98 mL/min/kg.
In the case of `O[C@@](CCN1CCCC1)(c1ccccc1)C1CCCCC1`, the clearance in data set [1] is 0.97 mL/min/kg.
On to `NC[C@H]1O[C@@H](O[C@H]2C(O)[C@@H](O[C@H]3O[C@@H](CO)[C@H](O)[C@@H](N)[C@@H]3O)[C@H](N)C[C@@H]2N)[C@H](N)C[C@@H]1O` (stereo not given in full), for which, in data set [1], the clearance is 1.35 mL/min/kg.
As for `Cc1ccc(-c2cc(C(F)(F)F)nn2-c2ccc(S(N)(=O)=O)cc2)cc1`, in data set [1], the clearance was 7.59 mL/min/kg.
On to `CN(C)C1C(=O)C(C(N)=O)=C(O)[C@@]2(O)C(=O)C3=C(O)c4c(O)cccc4[C@@](C)(O)[C@H]3[C@H](O)[C@@H]12` (stereo not given in full), for which the values for the Vd in data set [1] and in data set [2] (dog) were 1.7 L/kg and 1.01 L/kg, respectively. Further, the clearance was 2 mL/min/kg in data set [1] and 1.47 mL/min/kg in data set [2] (dog).
For `Oc1ccc(CCNCCCCCCNCCc2ccccc2)cc1O`, the clearance in data set [1] was 36 mL/min/kg.
On to `CC(=O)C1CC[C@H]2[C@@H]3CC[C@H]4C[C@](C)(O)CC[C@]4(C)[C@H]3CC[C@]12C` (stereo not given in full), for which, in data set [1], the half-life was 34 h and the fraction unbound is 0.01.
As for `CO[C@]1(NC(=O)C(C(=O)O)c2ccc(O)cc2)C(=O)N2C(C(=O)O)=C(CSc3nnnn3C)CO[C@@H]21` (stereo not given in full), the clearance in data set [1] was 1.32 mL/min/kg.
Take `C[C@@H](c1cc2ccccc2s1)N(O)C(N)=O`: the clearance in data set [1] was 7.14 mL/min/kg.
For the compound `Cc1ccc(NC(=O)C2CCCN(C(=O)c3c(C)cccc3F)[C@H]2c2ccc(NC3CCCC3)cc2)cc1C(F)(F)F` (stereo not given in full), in data set [1], the Vd was 5.75 L/kg, the clearance was 4.53 mL/min/kg, the half-life was 97.6 h and the fraction unbound was 0.01.
Regarding `NC(C(=O)NC1C(=O)N2C(C(=O)O)=C(Cl)CC[C@@H]12)c1ccccc1` (stereo not given in full), in data set [1], the clearance was 4.45 mL/min/kg.
`C=c1c(N)c(O)c2c(c1O)N1C[C@@H]3N[C@@H]3[C@@]1(OC)C=2COC(N)=O`: the clearance in data set [1] is 8.23 mL/min/kg.
